Assay results taken from patent US10233184B2, “7-substituted sulfonimidoylpurinone compounds and derivatives for the treatment and prophylaxis of virus infection” (Hoffmann-La Roche Inc., priority 2016, dated 2019).

Test system: HBV
Experiment: In vivo antiviral efficacy in AAV-HBV mouse model
Design: species or system C57BL/6 mice
Conditions: for reduction in HBV DNA / reduction in HBsAg: serum
Description: 4-6 week old male C57BL/6 mice, specific pathogen free, were purchased from Shanghai Laboratory Animal Center of Chinese Academy of Sciences (SLAC) and housed in an animal care facility in individually ventilated cages under controlled temperature and light conditions following the Institutional Animal Care guidelines. AAV-HBV virus was purchased from Beijing FivePlus Molecular Medicine Institute (Beijing, China). The recombinant virus carries 1.3 copies of the HBV genome packaged into AAV serotype 8 (AAV8) capsids. C57BL/6 mice were injected with 200 μL of the recombinant virus diluted in saline buffer through tail vein. On day 14, the mice were bled to measure HBV surface antigen (HBsAg) and HBV genomic DNA in the serum, and animals were then randomized into groups according to these HBV biomarkers.
Serum HBsAg and HBeAg were measured using CLIA kits (Autobio Diagnostics Co., Ltd., Zhengzhou, China) according to the manufacturer's instructions. The lower limit of detection for HBsAg was 0.05 IU/mL. Serum dilution of 500-fold was used to obtain values within the linear range of the standard curve.
Serum HBV DNA was extracted using a MagNA Pure 96 DNA and Viral NA Small Volume Kit (Roche) following the manufacturer's instructions. The DNA samples were analyzed by real-time quantitative PCR (qPCR) using a HBV-specific primer and probe set for specific amplification and detection of a 128 bp HBV genome region from the nucleotide 2969 to 3096. The sequences of the primers and probe are: […]
Anti-HBs in the serum was tested using Anti-HBs CLIA kits (Autobio Diagnostics Co., Ltd., Zhengzhou, China) and mouse anti-IgG conjugated with Biotin (0.5 mg/mL) from a Mabtech B Elispot kit. The anti-IgG Biotin was diluted in PBS with a final concentration of 1 μg/mL. 25 μL of mouse anti-IgG were mixed with serum samples in wells of the plate in the Anti-HBs CLIA kit for 1-hour incubation. Then wash the plate and add Streptavidin-HRP for 1-hour incubation at room temperature. After repeating the washing step, mix substrate A and B from the CLIA kit and add 50 μL of the mixture in each well. After 5-min incubation at room temperature, the plate was read on an Envision Plate Reader (PerkinElmer) to measure luminecence.
The mouse model with high level expression of both HBV DNA and HBsAg was generated by injecting C57BL/6 mice with a recombinant adeno-associated virus (AAV) carrying a replicable HBV genome (AAV-HBV). With long-lasting HBV viremia and fully competent immune system, the AAV-HBV mouse model was utilized to evaluate the antiviral efficacy of the TLR7 agonists following the study design as shown in Table 3.
Specifically, groups 2 and 3 were orally dosed with Example 43-A at 10 mg/kg every other day (QOD) and once weekly (QW), respectively, and the control group 1 received only Vehicle. At the dosing volume of 10 mL/kg, Example 43-A (1 mg/mL) was formulated as an inclusion complex with 2% Klucel LF, 0.5% TPGS, 0.09% Methylparabens, 0.01% Propylparabens in water. The animals were treated for a total of 42 days, and were submandibularly bled twice per week for serum collection throughout the study. The serum samples were subjected to analysis of HBV biomarkers.
The antiviral efficacy of Example 41-A was evaluated in the same AAV-HBV model following the study design in Table 4 with the same methods to measure HBV biomarkers as described in Example 51.
Specifically, groups 2, 3 and 4 were orally dosed with Example 41-A at 1, 3 and 10 mg/kg QOD respectively. Group 5 was treated with 10 mg/kg QW, while group 1 with only Vehicle. At the dosing volume of 10 mL/kg, Example 41-A (0.1, 0.3, and 1 mg/mL) was formulated as an inclusion complex with 2% Klucel LF, 0.5% TPGS, 0.09% Methylparabens, 0.01% Propylparabens in water. The animals were treated for a total of 42 days, and were submandibularly bled twice per week for serum collection throughout the study. The serum samples were subjected to analysis of HBV biomarkers. […]

[1] = AAV-HBV mice, 10 mg/kg PO QW, 42 days
[2] = AAV-HBV mice, 1, 3, 10 mg/kg PO QOD (all three doses)
[3] = AAV-HBV mice, 1, 3, 10 mg/kg PO QOD, 42 days
[4] = AAV-HBV mice, 1, 3, 10 mg/kg PO QOD, 42 days, all treated groups
[5] = AAV-HBV mice, 10 mg/kg PO QOD, 42 days

Structure (SMILES)	levels of HBV DNA and HBsAg at the treatment end [1]	levels of HBV DNA and HBsAg at the end of the 42-day treatment [2]	anti-HBsAg antibody level (AAV-HBV mice, 1, 3, 10 mg/kg PO QOD and 10 mg/kg QW, post treatment, versus Vehicle)	effect on HBV DNA and HBsAg [3]	anti-HBsAg antibody level [4]	levels of HBV DNA and HBsAg at the end of the 42-day treatment (AAV-HBV mice, 10 mg/kg PO QOD)	reduction in HBV DNA [5]	reduction in HBsAg [5]	reduction in HBV DNA [1]	reduction in HBsAg [1]	anti-HBsAg antibody level (AAV-HBV mice, 10 mg/kg PO, regardless of QOD and QW, 42 days)
CCCN(C)C(=O)n1c(=O)n(Cc2ccc(Cl)cc2)c2nc([S@](=N)(=O)CC)nc(N)c21 [Example 41-A, 6-Amino-9-[(4-chlorophenyl)methyl]-2-[S(R)-ethylsulfonimidoyl]-N-methyl-8-oxo-N-propyl-purine-7-carboxamide]	undetectable levels	below or close to the LLOQ	significantly higher levels of antibody against-HbsAg than Vehicle	dose-dependently reduced HBV DNA and HBsAg							
CCCN(C)C(=O)n1c(=O)n(Cc2ccc(Cl)cc2)c2nc([S@@](=N)(=O)CC)nc(N)c21 [Example 41-B, 6-Amino-9-[(4-chlorophenyl)methyl]-2-[S(S)-ethylsulfonimidoyl]-N-methyl-8-oxo-N-propyl-purine-7-carboxamide]		below the LLOQ		all effective to reduce HBV DNA and HBsAg	high levels of anti-HBsAg antibody than the Vehicle group						
CCN(C)C(=O)n1c(=O)n(Cc2ccc(Cl)cc2)c2nc([S@@](=N)(=O)CC)nc(N)c21 [Example 42-A, 6-Amino-9-[(4-chlorophenyl)methyl]-N-ethyl-2[S(S)-ethylsulfonimidoyl]-N-methyl-8-oxo-purine-7-carboxamide]		below or close to the LLOQ		all effective to reduce HBV DNA and HBsAg	significantly higher levels of anti-HBsAg antibody						
CCCN(C)C(=O)n1c(=O)n(Cc2ccc(C)cc2)c2nc([S@](=N)(=O)CC)nc(N)c21 [Example 43-A, 6-Amino-2-[S(R)-ethylsulfonimidoyl]-N-methyl-8-oxo-N-propyl-9-(p-tolylmethyl)purine-7-carboxamide]						undetectable and below the lower limit of quantification (LLOQ)	> 3 log	> 2.8 log	> 2 log	> 2.8 log	induced a considerable level of anti-HBsAg antibody
